Data as given in PMC4929945, “Structural and functional analysis of the solute-binding protein UspC from Mycobacterium tuberculosis that is specific for amino sugars” (Open Biology, 2016).

Tests used:
[1] = target: T1, UspC (Mtb-UspC, Rv2318), solute-binding protein of the UspABC transporter (Mycobacterium tuberculosis, UniProt P71894); assay: thermal shift saturation binding (Kd,app), Tm shift […]°C at […]
T1 construct: UspCNt, N-terminally truncated, residues 31–441, His6-tagged

[2] = target: T1, UspC (Mtb-UspC, Rv2318), solute-binding protein of the UspABC transporter; assay: STD-NMR ([…] ligand, […] protein) and thermal shift

T1 sequence (P71894 entry or part of it): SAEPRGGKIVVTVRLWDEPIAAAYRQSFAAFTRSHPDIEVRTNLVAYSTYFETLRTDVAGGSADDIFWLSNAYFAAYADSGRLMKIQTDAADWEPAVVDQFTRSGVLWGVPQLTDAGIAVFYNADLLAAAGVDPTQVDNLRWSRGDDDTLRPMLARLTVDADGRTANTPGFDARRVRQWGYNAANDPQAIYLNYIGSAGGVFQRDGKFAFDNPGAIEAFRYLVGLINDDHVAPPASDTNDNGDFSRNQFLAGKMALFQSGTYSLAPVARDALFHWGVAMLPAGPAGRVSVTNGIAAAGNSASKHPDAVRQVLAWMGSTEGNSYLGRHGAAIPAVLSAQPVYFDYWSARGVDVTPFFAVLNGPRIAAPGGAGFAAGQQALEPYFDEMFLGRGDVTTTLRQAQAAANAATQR

Row | SMILES | Kd [1] [mM] | STD-NMR (50 mM ligand, 30 μM protein) and thermal shift [2]
1 | N[C@H]1C(O)O[C@H](COP(=O)(O)O)[C@@H](O)[C@@H]1O (stereo partly drawn) [D-glucosamine-6-phosphate] | 27.7 ± 6.4 | 
2 | N[C@H]1C(O)O[C@H](CO)[C@@H](O)[C@@H]1O (stereo partly drawn) [D-glucosamine] |  | H2 (α and β) and H4 (α and β) of D-glucosamine interact non-covalently with Mtb-UspCNt
